Measured values published in article PMC1459859, “Display of a thermostable lipase on the surface of a solvent-resistant bacterium, Pseudomonas putida GM730, and its applications in whole-cell biocatalysis” (BMC Biotechnology, 2006).

Legend:
[1] = biological target: T1, TliA (thermostable lipase), displayed as INPNC-TliA (Pseudomonas fluorescens, UniProt Q9ZG91); assay: whole-cell chiral resolution, HPLC; type: cell-based; conditions: INPNC-TliA displayed on P. putida GM730/pJHC13 cells; 50 mM racemic substrate; two-phase PBS-isooctane; 25 °C; 72 h; R-selective
T1 sequence (Q9ZG91 1-476): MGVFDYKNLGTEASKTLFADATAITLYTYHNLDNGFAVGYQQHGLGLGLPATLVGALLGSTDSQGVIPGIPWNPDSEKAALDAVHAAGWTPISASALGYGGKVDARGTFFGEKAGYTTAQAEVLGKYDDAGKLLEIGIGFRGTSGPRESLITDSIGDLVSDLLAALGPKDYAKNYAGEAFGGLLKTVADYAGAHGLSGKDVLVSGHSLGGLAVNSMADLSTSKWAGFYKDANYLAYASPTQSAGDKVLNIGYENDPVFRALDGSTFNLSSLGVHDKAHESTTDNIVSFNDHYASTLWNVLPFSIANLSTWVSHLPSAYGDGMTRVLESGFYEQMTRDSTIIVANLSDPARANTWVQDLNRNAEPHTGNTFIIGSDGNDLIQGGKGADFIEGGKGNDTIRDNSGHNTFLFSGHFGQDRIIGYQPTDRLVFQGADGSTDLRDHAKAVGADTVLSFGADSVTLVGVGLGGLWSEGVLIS

[2] = biological target: T1, TliA (thermostable lipase), displayed as INPNC-TliA; assay: whole-cell lipase activity, spectrophotometric; type: cell-based; conditions: INPNC-TliA displayed on P. putida GM730/pJHC13 cells; PBS-washed; induced with 1 mM IPTG

SMILES | whole-cell chiral resolution, HPLC [1] | whole-cell lipase activity, spectrophotometric [2]
CC(C(=O)Oc1ccc([N+](=O)[O-])cc1)c1ccccc1 (racemic) [4-nitrophenyl 2-phenylpropionate] | enantiomeric excesses of the surviving p-nitrophenyl 2-phenylpropionate and the product (R) 2-phenylpropionic acid | 
CCCCCCCCCCCCCCCC(=O)Oc1ccc([N+](=O)[O-])cc1 [p-nitrophenyl palmitate] |  | whole-cell enzyme activities were measured with p-nitrophenyl palmitate (pNPP), which does not enter the cells
